From patent US11214594B2, “Antimicrobial peptide having synergistic antibacterial effect with antibiotics on multidrug resistant bacteria, and use thereof” (priority 2016, dated 2022)
Read-outs that look alike come from different tables or passages of the source. Where a SMILES comes first, the peptide text is derived from it. [ ]: non-standard residue; d: D form.

Columns and labels:
MDRAB 12035 [1] = experiment: MIC of antibiotic during combined treatment with antimicrobial peptide; format: cell-based, Acinetobacter baumannii
Procedure: Specifically, the strains described in [Table 2] were prepared and diluted with an MH medium such that the number of bacteria was 2×10^6 colony-forming units (CFUs) per 1 ml, 100 μl of the diluted strains was each aliquoted into a 96-well microtiter plate, and then 50 μl of a peptide solution diluted with the MH medium from the MIC value (solution diluted stepwise at 2: 1) was added to each well. Thereafter, the MIC value of each mixed solution was determined by diluting the antibiotic solution with the MH medium, adding 50 μl of the diluted solution to each well, and performing an experiment even under a reversed condition.

E. coli = format: cell-based, Escherichia coli; settings: E. coli
Procedure, shortened: (§1)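 Broth microdilution in MH medium; strains were diluted to 2×10^6 CFU per ml before plating. Peptide was serially diluted stepwise at 2:1 starting from its MIC, and MH-diluted antibiotic was then added to determine MIC. The reversed arrangement was also tested.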

MDREC 1229 = format: cell-based, Escherichia coli
Procedure, shortened: as §1

A. baumannii = experiment: MIC of antimicrobial peptide during combined treatment with antibiotic; format: cell-based, Acinetobacter baumannii
Procedure, shortened: as §1

MDRAB 12035 [2] = experiment: as above; format: cell-based, Acinetobacter baumannii
Procedure, shortened: as §1

[3] = peptide treatment concentration 8 μg/ml
[4] = peptide treatment concentration 16 μg/ml
[5] = peptide treatment concentration 32 μg/ml
[6] = peptide treatment concentration 64 μg/ml
[7] = linezolid 64 μg/ml (Conc./MIC 1/8)
[8] = linezolid 512 μg/ml (Conc./MIC 1)
[9] = vancomycin 512 μg/ml (Conc./MIC 1/2)
[10] = vancomycin 1024 μg/ml (Conc./MIC 1)
[11] = erythromycin 4 μg/ml (Conc./MIC 1/8)
[12] = erythromycin 8 μg/ml (Conc./MIC 1/4)
[13] = erythromycin 16 μg/ml (Conc./MIC 1/2)
[14] = erythromycin 32 μg/ml (Conc./MIC 1)

CC[C@H](C)[C@H](NC(=O)[C@H](CCCCN)NC(=O)[C@H](Cc1c[nH]c2ccccc12)NC(=O)[C@@H](N)CCCNC(=N)N)C(=O)N[C@@H](Cc1ccccc1)C(=O)N[C@@H](CCCCN)C(=O)N[C@@H](CCCCN)C(=O)N[C@H](C(=O)N[C@H](CC(C)C)C(=O)N[C@@H](CCCCN)C(=O)N[C@@H](CC(C)C)C(=O)N[C@@H](CC(C)C)C(=O)N[C@@H](Cc1c[nH]cn1)C(=O)N[C@@H](CCC(=O)O)C(=O)N[C@@H](C)C(=O)N[C@@H](CCCCN)C(=O)N[C@@H](CCCCN)C(=O)N[C@@H](Cc1c[nH]c2ccccc12)C(N)=O)[C@@H](C)CC [PapMA-24, RWK IFK KIl KLL HEA KKW-NH2] (H-RWKIFKKI[dL]KLLHEAKKW-NH2; N-terminus assumed)
32 µg/mL: Vancomycin MIC during combined treatment with peptide (MDRAB 12035 [1]; peptide treatment concentration 6 μg/ml)
0 µg/mL: Erythromycin MIC during combined treatment with peptide (MDRAB 12035 [1]; [5]) | Linezolid MIC during combined treatment with peptide (MDRAB 12035 [1]; [5]) | Vancomycin MIC during combined treatment with peptide (MDRAB 12035 [1]; [5]) | Erythromycin MIC during combined treatment with peptide (MDRAB 12035 [1]; [6]) | Linezolid MIC during combined treatment with peptide (MDRAB 12035 [1]; [6]) | Vancomycin MIC during combined treatment with peptide (MDRAB 12035 [1]; [6]) | Peptide MIC (E. coli; with Erythromycin […] (Conc./MIC 1)) | Peptide MIC (E. coli; with Linezolid […] (Conc./MIC 1)) | Peptide MIC (E. coli; with Vancomycin 1024 μg/ml (Conc./MIC 1)) | Peptide MIC during treatment with antibiotic (MDREC 1229; erythromycin […] (Conc./MIC 1)) | Peptide MIC during treatment with antibiotic (MDREC 1229; [8]) | Peptide MIC during treatment with erythromycin (A. baumannii; [14]) | Peptide MIC during treatment with linezolid (A. baumannii; linezolid […] (Conc./MIC 1)) | Peptide MIC during treatment with vancomycin (A. baumannii; [10]) | Peptide MIC during treatment with erythromycin (MDRAB 12035 [2]; [14]) | Peptide MIC during treatment with linezolid (MDRAB 12035 [2]; [8])
8 µg/mL: Linezolid MIC during combined treatment with peptide (MDRAB 12035 [1]; [3]) | Vancomycin MIC during combined treatment with peptide (MDRAB 12035 [1]; [4]) | Peptide MIC during treatment with antibiotic (MDREC 1229; vancomycin […] (Conc./MIC 1/8)) | Peptide MIC during treatment with erythromycin (A. baumannii; [11]) | Peptide MIC during treatment with linezolid (A. baumannii; linezolid 32 μg/ml (Conc./MIC 1/8)) | Peptide MIC during treatment with erythromycin (MDRAB 12035 [2]; [11]) | Peptide MIC during treatment with erythromycin (MDRAB 12035 [2]; [12])
0.5 µg/mL: Peptide MIC during treatment with vancomycin (A. baumannii; vancomycin […] (Conc./MIC 1/4))
4 µg/mL: Linezolid MIC during combined treatment with peptide (MDRAB 12035 [1]; [4]) | Peptide MIC during treatment with antibiotic (MDREC 1229; erythromycin 32 μg/ml (Conc./MIC 1/8)) | Peptide MIC during treatment with antibiotic (MDREC 1229; [7]) | Peptide MIC during treatment with antibiotic (MDREC 1229; vancomycin […] (Conc./MIC 1/4)) | Peptide MIC during treatment with erythromycin (A. baumannii; [12]) | Peptide MIC during treatment with erythromycin (A. baumannii; [13]) | Peptide MIC during treatment with linezolid (A. baumannii; linezolid 64 μg/ml (Conc./MIC 1/4)) | Peptide MIC during treatment with erythromycin (MDRAB 12035 [2]; [13]) | Peptide MIC during treatment with linezolid (MDRAB 12035 [2]; [7]) | Peptide MIC during treatment with linezolid (MDRAB 12035 [2]; linezolid […] (Conc./MIC 1/4)) | Peptide MIC during treatment with vancomycin (MDRAB 12035 [2]; vancomycin […] (Conc./MIC 1/4)) | Peptide MIC during treatment with vancomycin (MDRAB 12035 [2]; vancomycin […] (Conc./MIC 1/8))
16 µg/mL: Vancomycin MIC during combined treatment with peptide (MDRAB 12035 [1]; [3])
2 µg/mL: Peptide MIC during treatment with antibiotic (MDREC 1229; erythromycin 64 μg/ml (Conc./MIC 1/4)) | Peptide MIC during treatment with antibiotic (MDREC 1229; linezolid […] (Conc./MIC 1/4)) | Peptide MIC during treatment with antibiotic (MDREC 1229; [9]) | Peptide MIC during treatment with vancomycin (A. baumannii; vancomycin […] (Conc./MIC 1/8)) | Peptide MIC during treatment with vancomycin (MDRAB 12035 [2]; [9])
1 µg/mL: Erythromycin MIC during combined treatment with peptide (MDRAB 12035 [1]; [3]) | Peptide MIC during treatment with antibiotic (MDREC 1229; erythromycin […] (Conc./MIC 1/2)) | Peptide MIC during treatment with antibiotic (MDREC 1229; linezolid […] (Conc./MIC 1/2)) | Peptide MIC during treatment with antibiotic (MDREC 1229; [10]) | Peptide MIC during treatment with linezolid (A. baumannii; linezolid […] (Conc./MIC 1/2)) | Peptide MIC during treatment with linezolid (MDRAB 12035 [2]; linezolid […] (Conc./MIC 1/2)) | Peptide MIC during treatment with vancomycin (MDRAB 12035 [2]; [10])
0.25 µg/mL: Erythromycin MIC during combined treatment with peptide (MDRAB 12035 [1]; [4]) | Peptide MIC during treatment with vancomycin (A. baumannii; [9])
